Seven molecules from article PMC7866972, “Crosstalk of Cancer Signaling Pathways by Cyclic Hexapeptides and Anthraquinones from Rubia cordifolia” (Molecules, 2021) can be followed below.

What all share (assay type): cell-based
One test concerns Ap-1. Nature of the test: AP-1 luciferase reporter assay (PMA induced). Particulars: HeLa cells, compared to pTK as control, 4 h, read-out: percentage of luciferase induction Ap-1/PMA. Here is the method:
(§1) Hela cells from ATCC were plated in white opaque 384 well plates at a density of 4300 cells/well in 30 µL of a growth medium (DMEM with 10% FBS and 1% Pen/step). The next day, the medium was aspirated and replaced with DMEM containing 10% FBS. The cells were transfected with respective plasmids using the X-tremeGENE HP transfection reagent (Roche). Luciferase vectors used in this assay are summarized in Table S2, Supporting Information. After 24 h of transfection, the test agents were added to the transfected cells, followed 30 min later by an inducing agent (IL-6 for Stat 3, TGF-beta for Smad, m-wnt3a for Wnt and PMA for AP-1, NF-kB, E2F, Myc, ETS, Notch and Hedgehog). No inducer was added for FoXO, miR-21, and […]. After 4 h or 6 h of induction, the cells were lysed by the addition of the One-Glo luciferase assay system (Promega, Madison, WI, USA). The light output was detected in a Glomax Multi+ detection system with the Instinct Software (Promega, Madison, WI, USA). This luciferase assay determines if the test agent was able to inhibit the activation of cancer-related signaling pathways. In the case of FoxO and mi-R21, the enhanced luciferase activity by the test agent was assessed.
A general note: Reporter assays use an easily measured gene product as a stand-in for the process of interest.

In the next test the test system is Ets. In words: Ets luciferase reporter assay (PMA induced). Particulars: Homo sapiens, HeLa cells. As to the method: as §1
The subject of another test is Stat3. Nature of the test: Stat3 luciferase reporter assay (IL-6 induced). Conditions: Homo sapiens, HeLa cells. As to the method:
as §1

The test system of a further test is Wnt. Nature of the test: Wnt luciferase reporter assay (m-wnt3a induced). Particulars: Homo sapiens, HeLa cells. Here is the method: as §1
The subject of the next test is Notch. Nature of the test: Notch luciferase reporter assay (PMA induced). Particulars: Homo sapiens, HeLa cells, compared to pTK as control, 6 h, read-out: percentage of luciferase induction Notch/PMA. As to the method:
as §1

The subject of the next test is Hedgehog. In words: Hedgehog luciferase reporter assay (PMA induced). Conditions: Homo sapiens, HeLa cells, compared to pTK as control, 6 h, read-out: percentage of luciferase induction Hdghog/PMA. As to the method:
as §1

The next test deals with Myc. In words: Myc luciferase reporter assay (PMA induced). Conditions: Homo sapiens, HeLa cells. Here is the method: as §1
A further test has as its system NF-κB. Nature of the test: NF-κB luciferase reporter assay (PMA induced). Particulars: HeLa cells. As to the method:
as §1

The subject of another test is pTK control vector. Nature of the test: pTK control vector luciferase assay (minimal thymidine kinase promoter). Particulars: Homo sapiens, HeLa cells, no inducer, read-out: percentage of luciferase induction pTK/No Induction. Here is the method:
as §1

The subject of the next test is E2F. In words: E2F luciferase reporter assay (PMA induced). Conditions: Homo sapiens, HeLa cells, compared to pTK as control, 4 h, read-out: percentage of luciferase induction E2F/PMA. As to the method:
as §1

Test [1] has as its system cancer-related signaling pathways in HeLa cells. Nature of the test: Panel of luciferase reporter genes for cancer-related signaling pathways. Particulars: HeLa cells; 30 µM. Here is the method:
as §1
The simulated gastric fluid was prepared as described in the United States Pharmacopoeia (USP, 1995) and consists of 0.2% w/v of NaCl and 0.7% v/v of hydrochloric acid at pH 1.2. Aliquots (48 µL) of SGF were placed in 1.5-mL microcentrifuge tubes and incubated in a water bath at 37 °C [35]. In addition, 2 µL of compound 6 (10 mg/mL in DMSO) was added to each of the SGF vials to start the digestion reaction. The incubation was continued for 60 min and the digestion was stopped with 150 µL of ice-cold cell culture media. The digested samples were used for the cytotoxicity and luciferase assays at different concentrations and the activities were compared between the untreated and SGF treated peptide samples.

The next test relates to FoxO. In words: FoxO luciferase reporter assay (no inducer). Conditions: Homo sapiens, HeLa cells, 6 h, read-out: percentage of luciferase induction FoxO/No Induction. As to the method:
as §1

A further test concerns miR-21. In words: miR-21 luciferase reporter assay (no inducer). Conditions: Homo sapiens, HeLa cells, 6 h, read-out: percentage of luciferase induction mi-R21/No Induction. As to the method: as §1
A further test has as its system Smad. Nature of the test: Smad luciferase reporter assay (TGF-beta induced). Conditions: Homo sapiens, HeLa cells. As to the method:
as §1

Where [2] appears, read: compared to pTK as control, 4 h, read-out: percentage of luciferase induction Ets/PMA.
Setting [3] is: compared to pTK as control, 4 h, read-out: percentage of luciferase induction Stat3/IL-6.
Setting [4] is: compared to pTK as control, 6 h, read-out: percentage of luciferase induction Wnt/m-wnt 3a.
The mark [5] stands for this setting: compared to pTK as control, 4 h, read-out: percentage of luciferase induction Myc/PMA.
The mark [6] stands for this setting: Homo sapiens, compared to pTK as control, 4 h, read-out: percentage of luciferase induction NF-kB/PMA.
The mark [7] stands for this setting: compared to pTK as control, 4 h, read-out: percentage of luciferase induction Smad/TGF-β.

On to `O=C1c2ccccc2C(=O)c2c1ccc(O)c2O` [Compound 1, alizarin], for which the activity at 30 µM was determined as 87% in the test with Ap-1; 66% in the test with Ets (setting [2]); 81% in the test with Stat3 (setting [3]); 46% with Wnt (setting [4]); 106% in the test with Notch; 57% in the test with Hedgehog. For the same molecule, the activity at 30 µM stood at 61% in the test on Myc (setting [5]); 60% with NF-κB (setting [6]); 116% in the test with pTK control vector; 172% in the test on E2F; 69% in the test on FoxO; 141% in the test on miR-21. Further, the activity at 30 µM with Smad (setting [7]) was 109%. In addition, the “activity towards the signaling pathways (in words)” value in test [1] is “selective inhibition of Wnt and Hedgehog signaling pathways”.
Turning to `O=C1c2ccccc2C(=O)c2c(O)c(O)cc(O)c21` [Compound 2, purpurin], the activity at 30 µM with Ap-1 was found to be 73%; in the test with Ets (setting [2]), 103%; in the test on Stat3 (setting [3]) it was 102%; with Wnt (setting [4]), 77%; in the test on Notch, 194%; with Hedgehog, 152%. For the same molecule, the activity at 30 µM with Myc (setting [5]) stood at 61%; in the test with NF-κB (setting [6]), 65%; in the test with pTK control vector it was 198%; in the test with E2F, 190%; in the test on FoxO, 94%; in the test with miR-21 it was 259%. Besides, the activity at 30 µM with Smad (setting [7]) came to 163%. In test [1], the “activity towards the signaling pathways (in words)” value was “least active among these three anthraquinones”.
Turning to `Cc1cc(O)c2c(c1)C(=O)c1cccc(O)c1C2=O` [Compound 11, chrysophanol, reference compound], the activity at 30 µM is 115% in the test on Ap-1; 130% in the test on Ets (setting [2]); 171% in the test with Stat3 (setting [3]); 114% in the test with Wnt (setting [4]); 195% with Notch; 214% in the test with Hedgehog. Further, the activity at 30 µM in the test on Myc (setting [5]) came to 144%; with NF-κB (setting [6]) it was 90%; in the test on pTK control vector, 183%; in the test with E2F, 251%; in the test on FoxO it was 102%; in the test on miR-21, 280%. In the test on Smad (setting [7]), the activity at 30 µM was determined as 160%.
For `O=C1c2cccc(O)c2C(=O)c2c(O)cccc21` [Compound 12, danthron, reference compound], the activity at 30 µM in the test on Ap-1 came out at 122%; in the test with Ets (setting [2]) it was 120%; in the test with Stat3 (setting [3]), 137%; in the test with Wnt (setting [4]), 122%; in the test on Notch, 126%; in the test with Hedgehog, 168%. Besides, the activity at 30 µM in the test on Myc (setting [5]) was determined as 115%; in the test on NF-κB (setting [6]), 62%; in the test on pTK control vector, 101%; with E2F, 328%; with FoxO, 85%; in the test on miR-21, 156%. Moreover, the activity at 30 µM in the test on Smad (setting [7]) is 101%.
Regarding `O=C1c2ccccc2C(=O)c2c(O)ccc(O)c21` [Compound 13, quinizarin, reference compound], the activity at 30 µM amounted to 107% with Ap-1; 127% with Ets (setting [2]); 164% with Stat3 (setting [3]); 97% with Wnt (setting [4]); 198% with Notch; 142% with Hedgehog. Moreover, the activity at 30 µM was found to be 81% with Myc (setting [5]); 62% in the test with NF-κB (setting [6]); 134% in the test with pTK control vector; 282% in the test with E2F; 101% in the test on FoxO; 171% in the test on miR-21. Besides, in the test with Smad (setting [7]), the activity at 30 µM amounted to 159%.
`O=C1c2cccc(O)c2C(=O)c2c(O)cc(CO)cc21` [Compound 14, aloe-emodin, reference compound]: the activity at 30 µM came out at 138% with Ap-1; 128% in the test with Ets (setting [2]); 132% in the test with Stat3 (setting [3]); 129% in the test with Wnt (setting [4]); 157% with Notch; 99% with Hedgehog. The activity at 30 µM in the test with Myc (setting [5]) came to 95%; in the test with pTK control vector, 136%; in the test on E2F, 178%; in the test with FoxO, 109%; in the test with miR-21, 167%; in the test with Smad (setting [7]), 78%.
In the case of `CC1(C)CCC2=C(O1)C(=O)c1ccccc1C2=O` [Compound 15, α-lapachone, reference compound], the activity at 5 µM was 88% in the test with Ap-1 (5 µM); 45% with Ets (5 µM, compared to pTK as control, 4 h, read-out: percentage of luciferase induction Ets/PMA); 22% in the test with Stat3 (5 µM, compared to pTK as control, 4 h, read-out: percentage of luciferase induction Stat3/IL-6); 53% with Wnt (5 µM, compared to pTK as control, 6 h, read-out: percentage of luciferase induction Wnt/m-wnt 3a); 85% in the test on Notch (5 µM); 86% in the test with Hedgehog (5 µM). The activity at 5 µM with Myc (5 µM, compared to pTK as control, 4 h, read-out: percentage of luciferase induction Myc/PMA) is 44%; in the test with NF-κB (Homo sapiens, 5 µM, compared to pTK as control, 4 h, read-out: percentage of luciferase induction NF-kB/PMA), 44%; in the test with pTK control vector (5 µM), 97%; with E2F (5 µM), 82%; in the test on FoxO (5 µM), 100%; in the test on miR-21 (5 µM), 127%. Also, the activity at 5 µM in the test with Smad (5 µM, compared to pTK as control, 4 h, read-out: percentage of luciferase induction Smad/TGF-β) stood at 27%. In addition, the inhibition (as a rule, the share of the control response that was lost under treatment) at 5 µM was over 50% with Ets (5 µM, read-out: inhibition of ETS induction); over 50% in the test on Stat3 (5 µM, read-out: inhibition of Stat3 induction); over 50% in the test on Wnt (5 µM, read-out: inhibition of Wnt induction); over 50% in the test with Myc (5 µM, read-out: inhibition of Myc induction); over 50% in the test with Smad (5 µM, read-out: inhibition of Smad induction). The “inhibition of NF-kB induction” value with NF-κB (5 µM) is “more than 50%”.
